# According to patent US9765105B2, “Macrolide compound” (Pulike Biological Engineering, Inc., priority 2013, dated 2017):
# Legend:
# Experiment in all cases: in vitro susceptibility, MIC by mini broth dilution
# Type in all cases: cell-based
# [1] = system: Staphylococcus aureus CVCC26003; settings: strain CVCC26003
# Experimental: (§1) in vitro tests of susceptibility of the compounds according to the present disclosure against bacterial strains commonly used in laboratories. In accordance with the Performance Standards for Antimicrobial Disk Susceptibility Tests: Approved Standard published by the US National Committee for Clinical Laboratory Standards, the antibacterial activities of compounds prepared according to examples 5 to 187 were tested. The MICs (minimum inhibitory concentration) of the medicaments prepared according to the examples on the following bacterial strains were measured through mini broth dilution technique. Staphylococcus aureus CVCC26003, Streptococcus equines CVCC556. Actinobacillus pleuropneumoniae CVCC262, Haemophilus parasuis, and Pasteurella multocida CVCC399, which were purchased from the Control Institute of Veterinary Bioproducts and Pharmaceuticals, China. 4.1.1 Culture Medium for Staphylococcus aureus CVCC26003 Liquid culture medium: CAMHB. […] Solid culture medium: NINA prepared according to the specification of the final product. The strains were taken out of a refrigerator at −20° C. to be revived, and were spreaded by streaking on the solid culture medium with an inoculating loop. The inoculated culture medium was cultured at 35° C. in a constant temperature incubator for 20 h. […] were selected from a well-grown culture plate and streaked on the solid culture medium. The inoculated culture medium was cultured at 35° C. in the constant temperature incubator for 20 h. […] A 96-well plate was used, and 100 μl of DMSO was added into each of wells 2 to 11, and 200 μl of ready-prepared medicament solution was added into the 1st well, 100 μl of the medicament solution was extracted from the 1st well and added into the 2nd well. Double dilution was performed until the 11th well, thereby forming 11 gradients. In this case, compound of parent plate was prepared. 3 μl of double diluted medicament solution was extracted with a 12-channel pipettor and added into wells 1-11 of a new disposable 96-well culture plate. The 12th well thereof is a control well. For each medicament, there are two adjacent rows which are parallel. The transferred compound plate was reserved for later use. […] The dilution ratio was recorded, and the bacterial liquid for the tests was diluted according to the recorded dilution ratio. Subsequently, the bacterial suspension and the liquid culture medium were diluted in the proportion of 1:200. The diluted solution was reserved for later use.
# [2] = system: Actinobacillus pleuropneumoniae CVCC262; settings: strain CVCC262
# Experimental: as §1, with “China. 4.1.2” for “China. 4.1.1”, “Culture Media” for “Culture Medium”, “for the Rest Four Bacterial Strains.” for “for Staphylococcus aureus CVCC26003”, “medium:” for “medium: CAMHB.”, “medium: […]” for “medium: NINA prepared according to the specification of the final product.”
# Haemophilus parasuis = system: Haemophilus parasuis
# Experimental: as §1, with “China. 4.1.2” for “China. 4.1.1”, “Culture Media” for “Culture Medium”, “for the Rest Four Bacterial Strains.” for “for Staphylococcus aureus CVCC26003”, “medium:” for “medium: CAMHB.”, “medium: […]” for “medium: NINA prepared according to the specification of the final product.”
# [3] = system: Pasteurella multocida CVCC399; settings: strain CVCC399
# Experimental: as §1, with “China. 4.1.2” for “China. 4.1.1”, “Culture Media” for “Culture Medium”, “for the Rest Four Bacterial Strains.” for “for Staphylococcus aureus CVCC26003”, “medium:” for “medium: CAMHB.”, “medium: […]” for “medium: NINA prepared according to the specification of the final product.”
# [4] = system: Streptococcus equines CVCC556; settings: strain CVCC556
# Experimental: as §1, with “China. 4.1.2” for “China. 4.1.1”, “Culture Media” for “Culture Medium”, “for the Rest Four Bacterial Strains.” for “for Staphylococcus aureus CVCC26003”, “medium:” for “medium: CAMHB.”, “medium: […]” for “medium: NINA prepared according to the specification of the final product.”
Compound,"MIC values, Staphylococcus aureus CVCC26003 [1] [ug/mi]","MIC values, Actinobacillus pleuropneumoniae CVCC262 [2] [ug/mi]","MIC values, Haemophilus parasuis (Haemophilus parasuis)","MIC values, Pasteurella multocida CVCC399 [3]","MIC values, Streptococcus equines CVCC556 [4]"
"CC[C@H]1OC(=O)[C@H](C)[C@@H](O[C@H]2C[C@@](C)(OC)[C@](O)(CNCc3cccnc3)[C@H](C)O2)[C@H](C)[C@@H](O[C@@H]2O[C@H](C)C[C@H](N(C)C)[C@H]2O)[C@](C)(O)C[C@@H](C)NC[C@H](C)[C@@H](O)[C@]1(C)O [syzx-21, (2R,3S,4R,5S,8R,10R,11R,12S,13S,14R)-13-[(2,6-dideoxy-3-C-methyl-3-O-methyl-4-C-[(3-pyridinylmethylamino)methyl]-α-L-ribopyranosyl)oxy]-2-ethyl-3,4,10-trihydroxy-3,5,8,10,12,14-hexamethyl-11-[[3,4,6-trideoxy-3-(dimethylamino)-β-D-xylo-hexopyranosy]oxy]-1-oxa-7-azacyclopentadecan-15-one]",0.5,32,≦0.25 ug/mi,≦0.25 ug/mi,≦0.25 ug/mi
"CCOCCCNCC1(O)C(C)OC(OC2C(C)C(=O)OC(CC)C(C)(O)C(O)C(C)CNC(C)CC(C)(O)C(OC3OC(C)CC(N(C)C)C3O)C2C)CC1(C)OC [syzx-22, (2R,3S,4R,5S,8R,10R,11R,12S,13S,14R)-13-[(2,6-dideoxy-3-C-methyl-3-O-methyl-4-C-[(3-ethoxypropyl)amino)methyl]-α-L-ribopyranosyl)oxy]-2-ethyl-3,4,10-trihydroxy-3,5,8,10,12,14-hexamethyl-11-[[3,4,6-trideoxy-3-(dimethylamino)-β-D-xylo-hexopyranosy]oxy]-1-oxa-7-azacyclopentadecan-15-one]",1,8,≦0.25 ug/mi,0.5 ug/mi,0.5 ug/mi
"CC[C@H]1OC(=O)[C@H](C)[C@@H](O[C@H]2C[C@@](C)(OC)[C@](O)(CNCCCCl)[C@H](C)O2)[C@H](C)[C@@H](O[C@@H]2O[C@H](C)C[C@H](N(C)C)[C@H]2O)[C@](C)(O)C[C@@H](C)NC[C@H](C)[C@@H](O)[C@]1(C)O [syzx-75, (2R,3S,4R,5S,8R,10R,11R,12S,13S,14R)-13-[(2,6-dideoxy-3-C-methyl-3-O-methyl-4-C-[(3-chloropropyl-amino)-methyl]-α-L-ribopyranosyl)oxy]-2-ethyl-3,4,10-trihydroxy-3,5,8,10,12,14-hexamethyl-11-[[3,4,6-trideoxy-3-(dimethylamino)-β-D-xylo-hexopyranosy]oxy]-1-oxa-7-azacyclopentadecan-15-one]",4,64,4 ug/mi,8 ug/mi,4 ug/mi
"CC[C@H]1OC(=O)[C@H](C)[C@@H](O[C@H]2C[C@@](C)(OC)[C@](O)(CNCc3ccc(OC)cc3)[C@H](C)O2)[C@H](C)[C@@H](O[C@@H]2O[C@H](C)C[C@H](N(C)C)[C@H]2O)[C@](C)(O)C[C@@H](C)NC[C@H](C)[C@@H](O)[C@]1(C)O [syzx-18, (2R,3S,4R,5S,8R,10R,11R,12S,13S,14R)-13-[(2,6-dideoxy-3-C-methyl-3-O-methyl-4-C-[(4-methoxybenzylamino)methyl]-α-L-ribopyranosyl)oxy]-2-ethyl-3,4,10-trihydroxy-3,5,8,10,12,14-hexamethyl-11-[[3,4,6-trideoxy-3-(dimethylamino)-β-D-xylo-hexopyranosy]oxy]-1-oxa-7-azacyclopentadecan-15-one]",0.5,16,0.5 ug/mi,2 ug/mi,–

# The remaining lines, values ahead:
"MIC values, Staphylococcus aureus CVCC26003 [1] [ug/mi]","MIC values, Actinobacillus pleuropneumoniae CVCC262 [2] [ug/mi]","MIC values, Haemophilus parasuis (Haemophilus parasuis)","MIC values, Pasteurella multocida CVCC399 [3]","MIC values, Streptococcus equines CVCC556 [4]",Compound
0.25,0.25,0.25 ug/mi,0.5 ug/mi,0.25 ug/mi,CCCN1C[C@H](C)[C@@H](O)[C@](C)(O)[C@@H](CC)OC(=O)[C@H](C)[C@@H](O[C@H]2C[C@@](C)(OC)[C@](O)(CNCCc3ccc(S(N)(=O)=O)cc3)[C@H](C)O2)[C@H](C)[C@@H](O[C@@H]2O[C@H](C)C[C@H](N(C)C)[C@H]2O)[C@](C)(O)C[C@H]1C [syzx-161]
0.25,0.25,0.25 ug/mi,0.5 ug/mi,0.5 ug/mi,CCCN1C[C@H](C)[C@@H](O)[C@](C)(O)[C@@H](CC)OC(=O)[C@H](C)[C@@H](O[C@H]2C[C@@](C)(OC)[C@](O)(CNCCCC(=O)O)[C@H](C)O2)[C@H](C)[C@@H](O[C@@H]2O[C@H](C)C[C@H](N(C)C)[C@H]2O)[C@](C)(O)C[C@H]1C [syzx-142]
0.5,0.25,0.25 ug/mi,0.5 ug/mi,0.25 ug/mi,CCCN1C[C@H](C)[C@@H](O)[C@](C)(O)[C@@H](CC)OC(=O)[C@H](C)[C@@H](O[C@H]2C[C@@](C)(OC)[C@](O)(CNN3CCCCC3)[C@H](C)O2)[C@H](C)[C@@H](O[C@@H]2O[C@H](C)C[C@H](N(C)C)[C@H]2O)[C@](C)(O)C[C@H]1C [syzx-206]
0.25,0.25,0.25 ug/mi,0.5 ug/mi,0.25 ug/mi,CCCN1C[C@H](C)[C@@H](O)[C@](C)(O)[C@@H](CC)OC(=O)[C@H](C)[C@@H](O[C@H]2C[C@@](C)(OC)[C@](O)(CNc3cccc(Br)c3)[C@H](C)O2)[C@H](C)[C@@H](O[C@@H]2O[C@H](C)C[C@H](N(C)C)[C@H]2O)[C@](C)(O)C[C@H]1C [syzx-223]
0.25,0.25,0.25 ug/mi,0.5 ug/mi,0.25 ug/mi,CCCN1C[C@H](C)[C@@H](O)[C@](C)(O)[C@@H](CC)OC(=O)[C@H](C)[C@@H](O[C@H]2C[C@@](C)(OC)[C@](O)(CNc3ccc(Cl)cc3Cl)[C@H](C)O2)[C@H](C)[C@@H](O[C@@H]2O[C@H](C)C[C@H](N(C)C)[C@H]2O)[C@](C)(O)C[C@H]1C [syzx-231]
